These results are taken from patent US12467038B2, “Methods of culturing human pluripotent cells” (Hadasit Medical Research Services and Development Ltd., priority 2019, dated 2025).

Type in all cases: cell-based, human
Assay [1] relates to LN-hPSCs. Briefly: FACS analysis of pluripotency cell-surface markers. The settings on record: HES-1 cells cultured on LN111. How it is done: Signaling pathways analysis—hPSCs were cultured on LN111 for 2 days in complete medium, and then for additional 3-5 days in a medium+/−FGF2 in the presence of the following small molecules: PD032590 1 μM (Peprotech), LY294002 10 μM, SB431542 10 μM, CHIR99021 3 μM (all from Cayman Chemical, Michigan, USA), XAV939 2.5 μM (Peprotech), BMP4 50 ng/ml (Biogems-Peprotech). FACS analysis—FACS analyses were performed using the following primary antibodies: mouse IgM anti-TRA-1-60 (1:100; mab4360, R&D), and mouse IgM anti-TRA-1-81 (1:100; mab4381, R&D), and Rat IgM anti-SSEA-3. Staining with respective isotype control antibodies (all from eBiosciences) served as controls. Detection of primary antibodies was performed using the following secondary antibodies: FITC-conjugated Polyclonal Goat Anti-Mouse Immunoglobulins (1:100; Dako, Glostrup, Denmark), APC-conjugated Goat anti-Mouse IgM/G (1:200; Cat. No. 1020-11, SouthernBiotech, Birmingham, Ala., USA), and APC-conjugated anti-Rat (1:200; eBioscience). FACS analysis was performed on a FACScalibur system (Becton-Dickinson, San Jose, Calif.) using the Cellquest software. A detailed FACS procedure is described elsewhere. FACS analysis—FACS analyses for pluripotency marker expression were performed using mouse anti-TRA-1-60 (1:100; mab4360, R&D), and mouse anti-TRA-1-81 (1:100; mab4381, R&D). […]
(A flow cytometer gives signals particle by particle.)

Assay [2] relates to FGF5-GFP hPSC reporter clones (HES-1). Briefly: FACS analysis of FGF5-GFP expression in hPS-FGF5 reporter clones. How it is done: (§1) hPSC culture—hPSC culture—hPSC lines HES-1, HES-2 (10), HADC100, HADC102 (36) and H7 (9) were cultured on human foreskin feeders in serum free medium as described (30, 87). hPSC culturing in suspension was performed as reported (31) with minor modifications of the culture medium that was composed of Neurobasal medium, 14% KO-SR, L-glutamine 2 mM, 50 units/ml penicillin, 50 μg/ml streptomycin, 1% nonessential amino acids (all from Invitrogen, Carlsbad, Calif., USA). The medium was supplemented with FGF2 20 ng/ml, and activin A 25 ng/ml (both from Peprotech, Rocky Hill, N.J., USA), and laminin 0.5 μg/ml (Sigma-Aldrich, St. Louis, Mo., USA). For hPSC culturing on mouse LN111, 3-D Culture Matrix Laminin I (CULTREX, TREVIGEN, #3446-005-01, Gaithersburg, Md., USA) was diluted to a concentration of 1 mg/ml. Tissue culture dishes were coated with LN111, incubated overnight at 37° C. to promote matrix gelling, and washed with PBS. hPSCs were cultured on LN111 in a chemically defined medium composed of DMEM/F12, B27 supplement (1:50), N2 supplement (1:100) 2 mM L-glutamine, 50 units/ml penicillin, 50 μg/ml streptomycin (all from Invitrogen), and supplemented with 20 ng/ml bFGF (Peprotech). The cells were cultured in 5% CO2, 5% O2 incubator They were passaged every 7 days as small clusters by treatment with 1 mg/ml collagenase type IV (Invitrogen), and plated in a medium containing 5 μM ROCK inhibitor. hPSC culture under naïve conditions was performed using the 5iLFA protocol (20).
Generation of FGF5 reporter cell lines—a 3 kb fragment of human FGF5 promoter (GeneBank accession number NT_016354) was amplified from HES-1 genomic DNA using Expand High Fidelity PCR System (Roche Applied Science, Penzberg, Germany) with primers CG ? TTGCTTTCCTGGCTGGGAG (SEQ ID NO: 1) (EcoRI) and CA ? AGCCTCGGGGAAGAGAAGG (SEQ ID NO: 2) (ApaI). […] Single colonies were picked, replated, and analyzed for the integrity of the integrated reporter vector. […]

The subject of assay [3] is hPSCs. Briefly: Extended propagation and karyotype analysis. The protocol: as §1
Alkaline phosphatase activity detection and karyotyping—Detection of alkaline phosphatase activity was performed on hPSC colonies using the Alkaline Phosphatase Staining Kit II (Stemgent, Cambridge, Mass., USA) according to the manufacturer's instructions. Karyotype analysis, was performed on 3-4 day hPSC colonies.

Consider “LN111: mouse LN111, 3-D Culture Matrix Laminin I (CULTREX, TREVIGEN), coating of culture dishes”, for which the “cells expressing TRA-1-60 and TRA-1-81” value in assay [1] is “over 90%”. In addition, the “percentage of FGF5-GFP expressing cells” value is 86%±2 in assay [2] (reporter clone #1 cultured on LN111), 90%±1 in assay [2] (reporter clone #2 cultured on LN111) and 79%±3 in assay [2] (reporter clone #3 cultured on LN111). The extended undifferentiated propagation was found to be 6 passages in assay [3] (HADC100) and 8 passages in assay [3] (HADC102). Besides, in assay [3] (HES-1 cells), the “passages propagated while maintaining a normal karyotype” value is reported as “at least 10 passages”.
